Among the data in PubChem BioAssay (NCI) are TGI values, retold here.

The structures appear in SMILES notation.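 48-hour exposure; five concentrations; linearly interpolated endpoints. TGI is the concentration that stops growth completely.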

Among the test systems are BT-549 breast; CCRF-CEM leukemia; HCT-116 colon; HCT-15 colon; HL-60(TB) leukemia; HS 578T breast; KM12 colon; NCI-H522 lung; NCI/ADR-RES ovarian; OVCAR-3 ovarian; OVCAR-5 ovarian; OVCAR-8 ovarian; RPMI-8226 leukemia; T-47D breast; HOP-92 NSCLC; MDA-MB-231 breast; NCI-H23 lung; SF-295 CNS; SN12C renal; MCF7 breast.
Assay in all cases: growth of human tumour cells (NCI), 48 h

As for `COc1cc2cc(C(=O)N3CC(CCl)c4c3cc(O)c3ccccc43)[nH]c2c(OC)c1OC` (stereo unspecified), the TGI was 9.94 µM in the test on BT-549 breast; less than 0.005 µM in the test on CCRF-CEM leukemia; 5.85 µM with HCT-116 colon; 0.588 µM in the test with HCT-15 colon; less than 0.005 µM in the test with HL-60(TB) leukemia; less than 0.005 µM in the test on HS 578T breast. Besides, the TGI with KM12 colon was greater than 50 µM; in the test on NCI-H522 lung it was 0.155 µM; in the test with NCI/ADR-RES ovarian, greater than 50 µM; with OVCAR-3 ovarian, 8.42 µM; in the test on OVCAR-5 ovarian, 0.549 µM; in the test on OVCAR-8 ovarian, greater than 50 µM. Moreover, the TGI in the test on RPMI-8226 leukemia and in the test on T-47D breast was greater than 50 µM each time.

Consider `CN(C)/C=C/c1c2c(nc3ccccc13)C(=O)c1ccccc1C2=O`, for which the TGI in the test on BT-549 breast is 4.87 µM; in the test with CCRF-CEM leukemia it was 3.36 µM; with HCT-116 colon, 3.26 µM; with HCT-15 colon it was 2.71 µM; in the test with HOP-92 NSCLC, 30 µM; with HS 578T breast, 4.21 µM. The TGI in the test on KM12 colon came to 3.62 µM; in the test on MDA-MB-231 breast, 4.26 µM; in the test with NCI-H23 lung, 0.882 µM; with NCI-H522 lung, 4.61 µM; with NCI/ADR-RES ovarian, 5.6 µM; with OVCAR-3 ovarian, 0.622 µM. Moreover, the TGI with OVCAR-5 ovarian is 8.45 µM; with OVCAR-8 ovarian it was 7.71 µM; with RPMI-8226 leukemia, 3.49 µM; in the test on SF-295 CNS it was 2.88 µM; with SN12C renal, 2.84 µM; in the test on T-47D breast, 5.19 µM.

In the case of `COc1ccc(-c2cc(-c3ccccc3)nc3c2CC(=O)Nc2ccccc2-3)cc1OC`, the TGI was greater than 100 µM in the test on BT-549 breast; greater than 100 µM in the test with CCRF-CEM leukemia; greater than 100 µM in the test with HCT-15 colon; greater than 100 µM in the test with HOP-92 NSCLC; greater than 100 µM with KM12 colon; greater than 43.1 µM in the test on MCF7 breast. In addition, the TGI was 6.21 µM with MDA-MB-231 breast; greater than 100 µM in the test on NCI-H23 lung; greater than 100 µM in the test on NCI-H522 lung; greater than 100 µM in the test on NCI/ADR-RES ovarian; greater than 100 µM in the test with OVCAR-3 ovarian; greater than 100 µM in the test on OVCAR-5 ovarian. Further, the TGI in the test on OVCAR-8 ovarian is 0.447 µM; in the test with RPMI-8226 leukemia, greater than 100 µM; in the test on SF-295 CNS, greater than 100 µM; in the test with SN12C renal, greater than 100 µM; in the test with T-47D breast, greater than 100 µM.

Consider `CN(C)Cc1cc(C(=O)/C=C/c2ccc(F)cc2)cc(CN(C)C)c1O`, for which the TGI in the test on CCRF-CEM leukemia is 78 µM; with HCT-116 colon, 27 µM; in the test with HCT-15 colon it was 30.3 µM; in the test on HL-60(TB) leukemia it was 35.4 µM; in the test on HOP-92 NSCLC, 97.5 µM; in the test with HS 578T breast, 86.9 µM. The TGI with KM12 colon is 48.9 µM; in the test with MCF7 breast, 42.4 µM; with MDA-MB-231 breast, greater than 100 µM; in the test with NCI-H23 lung, greater than 100 µM; in the test with NCI-H522 lung, 31.7 µM; in the test with NCI/ADR-RES ovarian it was 86.2 µM. Also, the TGI in the test with OVCAR-3 ovarian was 50.9 µM; in the test on OVCAR-5 ovarian, greater than 100 µM; in the test with OVCAR-8 ovarian it was 83.9 µM; in the test on RPMI-8226 leukemia, greater than 100 µM; in the test on SF-295 CNS, 31.6 µM; with SN12C renal, greater than 100 µM. The compound also displayed a TGI in the test on T-47D breast of 46.3 µM.

On to `CS/C=C\C(=O)O[C@H]1C[C@@H]2[C@@H](O)c3occ(C)c3C[C@]2(C)[C@@H](C)C1`, for which the TGI in the test with CCRF-CEM leukemia is greater than 100 µM; with HCT-116 colon, 31.4 µM; in the test with HCT-15 colon, 95.1 µM; with HL-60(TB) leukemia it was 43.8 µM; with HOP-92 NSCLC, 65.6 µM; in the test with HS 578T breast, 71.5 µM. Also, the TGI was greater than 100 µM in the test with KM12 colon; 57.4 µM in the test on MCF7 breast; 41.7 µM with MDA-MB-231 breast; 85.8 µM with NCI-H23 lung; 71.7 µM with NCI-H522 lung; 42.3 µM with NCI/ADR-RES ovarian. Also, the TGI in the test on OVCAR-3 ovarian was 31 µM; with OVCAR-5 ovarian, greater than 100 µM; in the test on OVCAR-8 ovarian, 50.4 µM; in the test with RPMI-8226 leukemia, 79.9 µM; in the test on SF-295 CNS it was 77 µM; in the test on SN12C renal, 30.2 µM. For the same compound, the TGI in the test on T-47D breast came to 76.9 µM.

With `COc1ccc(-c2nc3cc(C(F)(F)F)ccc3n2CC2CCCN3CCCCC23)cc1` (stereo unspecified), the TGI is 31.4 µM in the test with CCRF-CEM leukemia; 33.6 µM in the test with HCT-116 colon; 29.1 µM with HCT-15 colon; 30.6 µM in the test on HL-60(TB) leukemia; 27.9 µM in the test with HOP-92 NSCLC; 31.1 µM in the test with HS 578T breast. The TGI with KM12 colon was determined as 45.2 µM; in the test with MCF7 breast, 25.9 µM; in the test on MDA-MB-231 breast it was 27.7 µM; in the test on NCI-H23 lung, 29 µM; with NCI-H522 lung it was 29.2 µM; in the test on NCI/ADR-RES ovarian it was 27.1 µM. Moreover, the TGI stood at 37.1 µM in the test on OVCAR-3 ovarian; 62.9 µM in the test with OVCAR-5 ovarian; 30.8 µM in the test on OVCAR-8 ovarian; 28.4 µM in the test on RPMI-8226 leukemia; 36.6 µM in the test with SF-295 CNS; 48.2 µM with T-47D breast.

Consider `COc1ccc(N(C(=O)NCCO)c2ccccc2)cc1`, for which the TGI in the test on CCRF-CEM leukemia, in the test on HCT-116 colon, in the test with HCT-15 colon, in the test with HL-60(TB) leukemia, with HOP-92 NSCLC and with HS 578T breast was greater than 100 µM throughout. Also, the TGI in the test on KM12 colon, in the test on MCF7 breast, in the test on MDA-MB-231 breast, in the test with NCI-H23 lung, in the test on NCI-H522 lung and in the test on NCI/ADR-RES ovarian was greater than 100 µM each time. For the same compound, the TGI in the test on OVCAR-3 ovarian, in the test with OVCAR-5 ovarian, in the test on OVCAR-8 ovarian, in the test on RPMI-8226 leukemia, with SF-295 CNS and in the test on SN12C renal was greater than 100 µM in each case. Further, in the test on T-47D breast, the TGI was greater than 100 µM.

Turning to `O=[p+]1c2ccccc2[nH]c2ccccc21`, the TGI in the test on CCRF-CEM leukemia, in the test on HCT-116 colon, in the test on HCT-15 colon, in the test with HL-60(TB) leukemia, with HOP-92 NSCLC and with KM12 colon was greater than 100 µM throughout. Besides, the TGI in the test on MCF7 breast, with MDA-MB-231 breast, in the test on NCI-H23 lung, with NCI-H522 lung, with NCI/ADR-RES ovarian and in the test on OVCAR-3 ovarian was greater than 100 µM each time. Moreover, the TGI in the test with OVCAR-5 ovarian, in the test with OVCAR-8 ovarian, in the test on SF-295 CNS, with SN12C renal and in the test on T-47D breast was greater than 100 µM each time.
